Measured values from US7279491B2 (Janssen Pharmaceutica N.V., priority 2002, dated 2007).

Target: T1, human histamine H3 receptor (Homo sapiens, UniProt Q9Y5N1)
T1 construct: One microgram of supercoiled H3 receptor cDNA was added to the cells and mixed; expressed in transfected cells; membranes
Assay: {3H}-N-methylhistamine binding to membranes of histamine H3 receptor-expressing SK-N-MC cells
Settings: 0.8 nM {3H}-N-methylhistamine, 45 min at 25° C., Ki=(IC50)/(1+({L}/(Kd)), Kd 800 pM)
Description: Transfection of Cells with Human Histamine Receptor
A 10 cm tissue culture dish with a confluent monolayer of SK-N-MC cells was split two days prior to transfection. Using sterile technique the media was removed and the cells were detached from the dish by the addition of trypsin. One fifth of the cells were then placed onto a new 10 cm dish. Cells were grown in a 37° C. incubator with 5% CO2 in Minimal Essential Media Eagle with 10% Fetal Bovine Serum. After two days cells were approximately 80% confluent. These were removed from the dish with trypsin and pelleted in a clinical centrifuge. The pellet was then re-suspended in 400 μL complete media and transferred to an electroporation cuvette with a 0.4 cm gap between the electrodes. One microgram of supercoiled H3 receptor cDNA was added to the cells and mixed. The voltage for the electroporation was set at 0.25 kV, the capacitance was set at 960 μF. After electroporation the cells were diluted into 10 mL complete media and plated onto four 10 cm dishes. Because of the variability in the efficiency of electroporation, four different concentrations of cells were plated. The ratios used were; 1:20, 1:10, 1:5, with the remainder of the cells being added to the fourth dish. The cells were allowed to recover for 24 h before adding the selection media (complete media with 600 μg/mL G418). After 10 days dishes were analyzed for surviving colonies of cells. Dishes with well-isolated colonies were used. Cells from individual colonies were isolated and tested. SK-N-MC cells were used because they give efficient coupling for inhibition of adenylate cyclase. The clones that gave the most robust inhibition of adenylate cyclase in response to histamine were used for further study.
{^3H}-N-methylhistamine Binding
Cell pellets from histamine H3 receptor-expressing SK-N-MC cells were homogenized in 20 mM Tris HCl/0.5 mM EDTA. Supernatants from an 800 g spin were collected, recentrifuged at 30,000 g for 30 min. Pellets were re-homogenized in 50 mM Tris/5 mM EDTA (pH 7.4). Membranes were incubated with 0.8 nM {^3H}-N-methylhistamine plus/minus test compounds for 45 min at 25° C. and harvested by rapid filtration over GF/C glass fiber filters (pretreated with 0.3% polyethylenimine) followed by four washes with ice-cold buffer. Filters were dried, added to 4 mL scintillation cocktail and then counted on a liquid scintillation counter. Non-specific binding was defined with 10 μM histamine. The pKi values were calculated based on a Kd of 800 pM and a ligand concentration ({L}) of 800 pM according to the formula: Ki=(IC50)/(1+({L}/(Kd))

T1 sequence (Q9Y5N1 whole entry): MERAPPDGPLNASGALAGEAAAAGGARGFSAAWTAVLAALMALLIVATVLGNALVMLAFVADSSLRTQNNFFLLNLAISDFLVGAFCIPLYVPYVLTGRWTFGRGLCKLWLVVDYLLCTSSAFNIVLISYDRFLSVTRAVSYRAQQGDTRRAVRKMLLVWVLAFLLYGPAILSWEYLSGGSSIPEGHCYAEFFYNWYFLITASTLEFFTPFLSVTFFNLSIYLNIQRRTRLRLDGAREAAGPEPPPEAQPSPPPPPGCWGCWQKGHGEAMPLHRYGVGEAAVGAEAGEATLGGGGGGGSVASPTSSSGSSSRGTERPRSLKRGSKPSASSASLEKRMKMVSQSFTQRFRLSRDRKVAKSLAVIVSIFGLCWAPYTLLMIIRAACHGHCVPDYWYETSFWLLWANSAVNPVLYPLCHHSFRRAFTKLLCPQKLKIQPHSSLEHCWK

SMILES | Ki [nM]
c1ccc(N2CCC(CN3CCCCC3)CC2)c(CN2CCOCC2)c1 [Example 22, 4-{2-(4-piperidin-1-ylmethyl-piperidin-1-yl)-benzyl}-morpholine] | 4500
c1cc(N2CCC(CNC3CCCCC3)CC2)ccc1CN1CCCC1 [Example 23, Cyclohexyl-{1-(4-pyrrolidin-1-ylmethyl-phenyl)-piperidin-4-ylmethyl}-amine] | 0.9
c1cc(N2CCC(CN3CCCCCCCCCCCC3)CC2)ccc1CN1CCCC1 [Example 24, 1-{1-(4-Pyrrolidin-1-ylmethyl-phenyl)-piperidin-4-ylmethyl}-azacyclotridecane] | 23
CCN(CC)CC1CCN(c2ccc(CN3CCCC3)cc2)CC1 [Example 25, Diethyl-{1-(4-pyrrolidin-1-ylmethyl-phenyl)-piperidin-4-ylmethyl}-amine] | 0.8
CN(C)CC1CCN(c2ccc(CN3CCCC3)cc2)CC1 [Example 26, Dimethyl-{1-(4-pyrrolidin-1-ylmethyl-phenyl)-piperidin-4-ylmethyl}-amine] | 1.7
CN1CCN(CC2CCN(c3ccc(CN4CCCC4)cc3)CC2)CC1 [Example 27, 1-Methyl-4-{1-(4-pyrrolidin-1-ylmethyl-phenyl)-piperidin-4-ylmethyl}-piperazine] | 1.4
OC1CCN(CC2CCN(c3ccc(CN4CCCC4)cc3)CC2)CC1 [Example 28, 1-{1-(4-Pyrrolidin-1-ylmethyl-phenyl)-piperidin-4-ylmethyl}-piperidin-4-ol] | 0.8
c1cc(N2CCC(CN3CCSCC3)CC2)ccc1CN1CCCC1 [Example 29, 4-{1-(4-Pyrrolidin-1-ylmethyl-phenyl)-piperidin-4-ylmethyl}-thiomorpholine] | 2
c1cc(N2CCC(CN3CCCCC3)CC2)ccc1CN1CCCC1 [Example 30, 1-{1-(4-Pyrrolidin-1-ylmethyl-phenyl)-piperidin-4-ylmethyl}-piperidine] | 1
c1cc(N2CCC(CN3CCOCC3)CC2)ccc1CN1CCCC1 [Example 31, 4-{1-(4-Pyrrolidin-1-ylmethyl-phenyl)-pieridin-4-ylmethyl}-morpholine] | 2
c1cc(CN2CCSCC2)cc(N2CCC(CN3CCCC3)CC2)c1 [Example 32, 4-{3-(4-Pyrrolidin-1-ylmethyl-piperidin-1-yl)-benzyl}-thiomorpholine] | 9
c1cc(CN2CCOCC2)cc(N2CCC(CN3CCCC3)CC2)c1 [Example 33, 4-{3-(4-Pyrrolidin-1-ylmethyl-piperidin-1-yl)-benzyl}-morpholine] | 20
c1cc(CN2CCCC2)cc(N2CCC(CN3CCCC3)CC2)c1 [Example 34, 4-Pyrrolidin-1-ylmethyl-1-(3-pyrrolidin-1-ylmethyl-phenyl)-piperidine] | 6
c1cc(CN2CCCCC2)cc(N2CCC(CN3CCCC3)CC2)c1 [Example 35, 1-{3-(4-pyrrolidin-1-ylmethyl-piperidin-1-yl)-benzyl}-piperidine] | 10
c1cc(N2CCC(CN3CCCC3)CC2)ccc1CN1CCCCCCCCCCCC1 [Example 36, 1-{4-(4-Pyrrolidin-1-ylmethyl-piperidin-1-yl)-benzyl}-azacyclotridecane] | 6
c1cc(N2CCC(CN3CCCC3)CC2)ccc1CNC1CCCCC1 [Example 37, Cyclohexyl-{4-(4-pyrrolidin-1-ylmethyl-piperidin-1-yl)-benzyl}-amine] | 2
OC1CCN(Cc2ccc(N3CCC(CN4CCCC4)CC3)cc2)CC1 [Example 38, 1-{4-(4-Pyrrolidin-1-ylmethyl-piperidin-1-yl)-benzyl}-piperidin-4-ol] | 5
CN1CCN(Cc2ccc(N3CCC(CN4CCCC4)CC3)cc2)CC1 [Example 39, 1-Methyl-4-{4-(4-pyrrolidin-1-ylmethyl-piperidin-1-yl)-benzyl}-piperazine] | 6
c1cc(N2CCC(CN3CCCC3)CC2)ccc1CN1CCSCC1 [Example 40, 4-{4-(4-Pyrrolidin-1-ylmethyl-piperidin-1-yl)-benzyl}-thiomorpholine] | 4
c1cc(N2CCC(CN3CCCC3)CC2)ccc1CN1CCOCC1 [Example 41, 4-{4-(4-Pyrrolidin-1-ylmethyl-piperidin-1-yl)-benzyl}-morpholine] | 12
CN(C)Cc1ccc(N2CCC(CN3CCCC3)CC2)cc1 [Example 42, Dimethyl-{4-(4-pyrrolidin-1-ylmethyl-piperidin-1-yl)-benzyl}-amine] | 5

SMILES | Ki [nM]
c1ccc(N2CCC(CN3CCCC3)CC2)c(CN2CCOCC2)c1 [Example 43, 4-{2-(4-Pyrrolidin-1-ylmethyl-piperidin-1-yl)-benzyl}-morpholine] | 4800
c1cc(N2CCC(CN3CCOCC3)CC2)ccc1CN1CCCCC1 [Example 44, 4-{1-(4-Piperidin-1-ylmethyl-phenyl)-piperidin-4-ylmethyl}-morpholine] | 5
c1cc(N2CCC(CN3CCCC3)CC2)ccc1CN1CCCCC1 [Example 45, 1-{4-(4-Pyrrolidin-1-ylmethyl-piperidin-1-yl)-benzyl}-piperidine] | 2
c1cc(N2CCC(NC3CCCCC3)CC2)ccc1CN1CCOCC1 [Example 46, Cyclohexyl-{1-(4-morpholin-4-ylmethyl-phenyl)-piperidin-4-yl}-amine] | 28
CN(C1CCCCC1)C1CCN(c2ccc(CN3CCOCC3)cc2)CC1 [Example 47, Cyclohexyl-methyl-{1-(4-morpholin-4-ylmethyl-phenyl)-piperidin-4-yl}-amine] | 5.8
CN1CCN(C2CCN(c3ccc(CN4CCOCC4)cc3)CC2)CC1 [Example 48, 4-{4-{4-(4-Methyl-piperazin-1-yl)-piperidin-1-yl}-benzyl}-morpholine] | 1000
CCN(C)C1CCN(c2ccc(CN3CCOCC3)cc2)CC1 [Example 49, Ethyl-methyl-{1-(4-morpholin-4-ylmethyl-phenyl)-piperidin-4-yl}-amine] | 14
c1cc(N2CCC(N3CCOCC3)CC2)ccc1CN1CCOCC1 [Example 50, 4-{1-(4-Morpholin-4-ylmethyl-phenyl)-piperidin-4-yl}-morpholine] | 272
c1cc(N2CCC(N3CCCC3)CC2)ccc1CN1CCOCC1 [Example 51, 4-{4-(4-Pyrrolidin-1-yl-pieridin-1-yl)-benzyl}-morpholine] | 17
c1cc(N2CCC(N3CCCCC3)CC2)ccc1CN1CCOCC1 [Example 52, 1′-(4-Morpholin-4-ylmethyl-phenyl)-{1,4′}bipiperidinyl] | 5.5
c1cc(N2CCC(N3CCCCC3)CC2)ccc1CN1CCCCC1 [Example 53, 1′-(4-Piperidin-1-ylmethyl-phenyl)-{1,4′}bipiperidinyl] | 2.7
c1ccc(NCc2ccc(N3CCC(N4CCCCC4)CC3)cc2)nc1 [Example 54, (4-{1,4′}Bipiperidinyl-1′-yl-benzyl)-pyridin-2-yl-amine] | 8.4
c1ccc(NCC2CCN(c3ccc(CN4CCCC4)cc3)CC2)cc1 [Example 55, Phenyl-{1-(4-pyrrolidin-1-ylmethyl-phenyl)-piperidin-4-ylmethyl}-amine] | 8
c1ccc(NCC2CCN(c3ccc(CN4CCCC4)cc3)CC2)nc1 [Example 56, Pyridin-2-yl-{1-(4-pyrrolidin-1-ylmethyl-phenyl)-piperidin-4-ylmethyl}-amine] | 3
c1cc(N2CCC(CN3CCCCC3)CC2)ccc1CN1CCCCC1 [Example 57, 1-{1-(4-Piperidin-1-ylmethyl-phenyl)-piperidin-4-ylmethyl}-piperidine] | 2.5
c1cc(N2CCC(CN3CCCC3)CC2)ccc1CN1CCCC1 [Example 58, 4-Pyrrolidin-1-ylmethyl-1-(4-pyrrolidin-1-ylmethyl-phenyl)-piperidine] | 0.6
Fc1ccc(NCc2ccc(N3CCC(CN4CCCC4)CC3)cc2)cc1 [Example 59, (4-Fluoro-phenyl)-{4-(4-pyrrolidin-1-ylmethyl-piperidin-1-yl)-benzyl}-amine] | 48
c1cc(N2CCC(CCN3CCOCC3)C2)ccc1CN1CCCCC1 (centres unmarked) [Example 60, 4-{2-{1-(4-Piperidin-1-ylmethyl-phenyl)-pyrrolidin-3-yl}-ethyl}-morpholine] | 1.1
CCN(CC)CCC1CCN(c2ccc(CN3CCCCC3)cc2)C1 (centres unmarked) [Example 61, Diethyl-{2-{1-(4-piperidin-1-ylmethyl-phenyl)-pyrrolidin-3-yl}-ethyl}-amine] | 0.8
CN(CCc1ccccc1)CCC1CCN(c2ccc(CN3CCCCC3)cc2)C1 (centres unmarked) [Example 62, Methyl-phenethyl-{2-{1-(4-piperidin-1-ylmethyl-phenyl)-pyrrolidin-3-yl}-ethyl}-amine] | 1.3
